Assay results reported in article PMC12648313, “Enhancing the Efficacy, Utility, and Throughput of the Transcription Block Survival Peptide Library Screening Platform” (JACS Au, 2025).

Key:
DLX5/H-Box complex = assay: FP antagonism assay DLX5/H-Box; type: biochemical; settings: FAM-H-Box DNA, over the concentration range tested
ATF2 [1] = biological target: T1, ATF2 (Homo sapiens, UniProt P15336); assay: CD thermal denaturation, ATF2/ATF2W mixture; type: binding
T1 construct: human ATF2 bZIP domain spans from Asp352 to Gln410; made in house; host or cells: chemical synthesis (Fmoc solid-phase peptide synthesis), no expression host
T1 sequence (P15336 352-410): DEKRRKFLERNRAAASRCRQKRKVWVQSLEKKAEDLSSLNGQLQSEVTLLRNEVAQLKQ
Text: (§1) removed before peptide concentration determination.
(§2) Peptide samples were suspended in 20

ATF2 [2] = biological target: T1, ATF2; assay: Isothermal titration calorimetry; type: binding; settings: 20 °C, pH 7.4, average of three independent experiments ± SD
Text: 5 Biophysical characterization of the ATF2-ATF2W interaction. (A) CD spectra of ATF2 and ATF2W indicating an increase in helicity upon mixture of the two components, indicative of the formation of a heterodimeric coiled coil. (B) CD thermal denaturation experiment indicates a T m shift upon mixture of ATF2/ATF2W, supporting the formation of a stable heterodimer. The “average” CD trace in A and B represents an averaged value of the two unbound components which would be the trace for no interaction. (C) ITC data for ATF2W (50 μM) titrated into ATF2 (5 μM) at 20 °C. The raw power compensation plot is shown in the upper graph and the integrated data points and single site model fitted line are shown in the lower graph. […] ATF2W is selective for ATF2, with a ∼ 3-fold reduction in antagonism for CREB1/CRE and cJun/TRE despite high structural and sequence homology. […]
as §1, §2
(§3) Post-melt scans at 20°C confirmed the
(§4) Sequential 2 µL injections of ATF2W (50 µM)
(§5) Data from a control experiment whereby […]
(§6) errors are given as one standard deviation.
Fluorescence polarisation: Fluorescence polarisation was measured in a CLARIOstar

FAM-CRE DNA = assay: FP binding of ATF2W to CRE DNA; settings: ATF2W 9 nM-10 μM, FAM-CRE DNA 10 nM, up to 1000x excess
Procedure: as §1, §2, §3, §4, §5, §6
Fluorescence polarisation: Fluorescence polarisation was measured in a CLARIOstar […]
chloride, 5 mM MgCl2, 10 mM TCEP, pH 7.4 buffer. Palindromic FAM-CRE DNA oligo was […]
purchased from Merck: 5’[6FAM]- […]. 200 µM of the oligo was […]
prepared in water and then annealed by heating to 95°C for 10 minutes before cooling slowly to room temperature to give a 100 µM duplex stock. Samples containing 10 nM FAM-CRE and a serial dilution of ATF2 (12 nM-10 µM) were prepared and incubated at room temperature for 1 hour before transferring to the assay plate for measurement. Data were fit to a one site binding model. For antagonism experiments, the ATF2 concentration required for 80% response was selected. Samples containing 10 nM FAM-TRE, 625 nM ATF2 and a serial dilution of ATF2W (29 nM-12 µM) were prepared and incubated at room temperature for 2 hours before transferring to the assay plate for measurement. CREB1/CRE, cJun/TRE and DLX5/H-box DNA antagonism were determined by the equivalent experiments, using the FAM-CRE oligo above; FAM-TRE DNA oligoes: 5’-[6FAM]-[…], 5’- […]
[6FAM]-[…]; and palindromic FAM-H-Box oligo: 5’-[6FAM]- […]

## Ac-LEQQLEELAQENEELEKEAAELQQQIARLKNEVAKLENENKTLDREIKALQREYSHKSD-NH2 [ATF2W]
DLX5/H-Box complex
  antagonism of DLX5/H-Box interaction: minimal antagonism
ATF2 [1]; heterodimeric ATF2/ATF2W sample vs ATF2W alone
  ΔTm relative to ATF2W alone: 18 °C
ATF2 [1]; heterodimeric ATF2/ATF2W sample, 222 nm, 1 to 95 °C, pH 7.4, 10 mM TCEP.HCl, two-state model
  Tm: 55 °C
ATF2 [2]; ATF2W (50 μM) titrated into ATF2 (5 μM), 50 mM potassium phosphate, 150 mM NaCl, 10 mM TCEP, one-site model
  Kd: 114 ± 21 nM
ATF2 [2]; ITC
  -TΔS: 40 ± 4 kJ mol^–1
  N (stoichiometry): 0.99 ± 0.01
  ΔH: −79 ± 3 kJ mol^–1
FAM-CRE DNA
  interaction with CRE DNA: does not interact with CRE DNA
